Results: PMC10611796, “The α-synuclein PET tracer [18F] ACI-12589 distinguishes multiple system atrophy from other neurodegenerative diseases” (Nature Communications, 2023)

Biological target: T1, α-synuclein (Homo sapiens, UniProt P37840)
T1 construct: gene SNCA; pathological α-syn aggregates in post-mortem human brain tissue
Experiment: radioligand saturation binding (autoradiography and radiobinding) on human brain tissue; displacement by unlabeled ACI-12589; micro-autoradiography

Kd: 0.0335 ± 0.0174 µM
Substance: ACI-12589
